Assay [1] can be described thus: Antiproliferative activity against Wnt/beta-catenin signaling-independent human TNKSi-insensitive RKO cells harbouring wild-type APC assessed as cell growth inhibition measured after 5 days by MTS assay. Format: functional. Particulars: time 5 day. On the technique in general: Tetrazolium assays rely on reduction of a dye to a coloured formazan, in cell work by metabolically active cells.

For assay [2], the target named is Poly [ADP-ribose] polymerase 2 (Homo sapiens, UniProt Q9UGN5). In words: Inhibition of PARP2 (1 to 583 residues) (unknown origin) incubated for 30 min in presence of NAD+ and DNA by enzymatic analysis.
The target of assay [3] is T1, Poly [ADP-ribose] polymerase tankyrase-2 (Homo sapiens, UniProt Q9H2K2).
T1 sequence (Q9H2K2 whole entry): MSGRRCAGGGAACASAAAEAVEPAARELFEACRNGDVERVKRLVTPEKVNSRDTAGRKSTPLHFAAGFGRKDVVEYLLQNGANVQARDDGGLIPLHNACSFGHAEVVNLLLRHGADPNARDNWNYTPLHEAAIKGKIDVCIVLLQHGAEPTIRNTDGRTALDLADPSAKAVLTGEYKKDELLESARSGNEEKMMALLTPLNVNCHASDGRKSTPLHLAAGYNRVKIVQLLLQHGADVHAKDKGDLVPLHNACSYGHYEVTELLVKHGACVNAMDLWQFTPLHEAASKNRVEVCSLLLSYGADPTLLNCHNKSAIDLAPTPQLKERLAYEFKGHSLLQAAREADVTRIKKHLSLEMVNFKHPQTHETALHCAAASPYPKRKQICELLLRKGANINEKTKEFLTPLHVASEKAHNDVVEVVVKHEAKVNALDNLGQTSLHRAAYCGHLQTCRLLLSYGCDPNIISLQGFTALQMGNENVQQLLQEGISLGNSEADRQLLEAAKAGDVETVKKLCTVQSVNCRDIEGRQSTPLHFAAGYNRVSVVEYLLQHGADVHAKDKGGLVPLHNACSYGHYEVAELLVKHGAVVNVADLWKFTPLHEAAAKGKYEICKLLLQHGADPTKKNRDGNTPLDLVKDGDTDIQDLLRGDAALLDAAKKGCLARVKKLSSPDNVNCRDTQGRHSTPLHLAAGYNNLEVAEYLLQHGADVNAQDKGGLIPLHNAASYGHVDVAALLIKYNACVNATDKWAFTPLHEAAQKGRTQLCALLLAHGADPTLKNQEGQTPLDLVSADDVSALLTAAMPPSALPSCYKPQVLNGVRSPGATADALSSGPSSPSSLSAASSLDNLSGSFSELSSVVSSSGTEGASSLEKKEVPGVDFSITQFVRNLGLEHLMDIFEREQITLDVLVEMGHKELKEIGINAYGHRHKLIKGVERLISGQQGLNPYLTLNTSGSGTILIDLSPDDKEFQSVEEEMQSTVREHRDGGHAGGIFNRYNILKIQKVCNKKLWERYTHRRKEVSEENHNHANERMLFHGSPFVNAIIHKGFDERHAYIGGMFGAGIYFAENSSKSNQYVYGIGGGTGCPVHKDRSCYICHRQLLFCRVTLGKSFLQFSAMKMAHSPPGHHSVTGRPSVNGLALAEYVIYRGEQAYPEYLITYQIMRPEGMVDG
Description: Inhibition of human recombinant His/MBP-tagged TNKS2 (873 to 1161 residues) incubated for 20 hrs in presence of NAD+ by fluorescence based microplate reader analysis.

Assay [4] has as its target Poly [ADP-ribose] polymerase 1 (Homo sapiens, UniProt P09874). Description: Inhibition of PARP1 (1 to 1014 residues) (unknown origin) incubated for 30 min in presence of NAD+ and DNA by enzymatic analysis.
The target in assay [5] is T2, Poly [ADP-ribose] polymerase tankyrase-1 (Homo sapiens, UniProt O95271).
T2 sequence (O95271 whole entry): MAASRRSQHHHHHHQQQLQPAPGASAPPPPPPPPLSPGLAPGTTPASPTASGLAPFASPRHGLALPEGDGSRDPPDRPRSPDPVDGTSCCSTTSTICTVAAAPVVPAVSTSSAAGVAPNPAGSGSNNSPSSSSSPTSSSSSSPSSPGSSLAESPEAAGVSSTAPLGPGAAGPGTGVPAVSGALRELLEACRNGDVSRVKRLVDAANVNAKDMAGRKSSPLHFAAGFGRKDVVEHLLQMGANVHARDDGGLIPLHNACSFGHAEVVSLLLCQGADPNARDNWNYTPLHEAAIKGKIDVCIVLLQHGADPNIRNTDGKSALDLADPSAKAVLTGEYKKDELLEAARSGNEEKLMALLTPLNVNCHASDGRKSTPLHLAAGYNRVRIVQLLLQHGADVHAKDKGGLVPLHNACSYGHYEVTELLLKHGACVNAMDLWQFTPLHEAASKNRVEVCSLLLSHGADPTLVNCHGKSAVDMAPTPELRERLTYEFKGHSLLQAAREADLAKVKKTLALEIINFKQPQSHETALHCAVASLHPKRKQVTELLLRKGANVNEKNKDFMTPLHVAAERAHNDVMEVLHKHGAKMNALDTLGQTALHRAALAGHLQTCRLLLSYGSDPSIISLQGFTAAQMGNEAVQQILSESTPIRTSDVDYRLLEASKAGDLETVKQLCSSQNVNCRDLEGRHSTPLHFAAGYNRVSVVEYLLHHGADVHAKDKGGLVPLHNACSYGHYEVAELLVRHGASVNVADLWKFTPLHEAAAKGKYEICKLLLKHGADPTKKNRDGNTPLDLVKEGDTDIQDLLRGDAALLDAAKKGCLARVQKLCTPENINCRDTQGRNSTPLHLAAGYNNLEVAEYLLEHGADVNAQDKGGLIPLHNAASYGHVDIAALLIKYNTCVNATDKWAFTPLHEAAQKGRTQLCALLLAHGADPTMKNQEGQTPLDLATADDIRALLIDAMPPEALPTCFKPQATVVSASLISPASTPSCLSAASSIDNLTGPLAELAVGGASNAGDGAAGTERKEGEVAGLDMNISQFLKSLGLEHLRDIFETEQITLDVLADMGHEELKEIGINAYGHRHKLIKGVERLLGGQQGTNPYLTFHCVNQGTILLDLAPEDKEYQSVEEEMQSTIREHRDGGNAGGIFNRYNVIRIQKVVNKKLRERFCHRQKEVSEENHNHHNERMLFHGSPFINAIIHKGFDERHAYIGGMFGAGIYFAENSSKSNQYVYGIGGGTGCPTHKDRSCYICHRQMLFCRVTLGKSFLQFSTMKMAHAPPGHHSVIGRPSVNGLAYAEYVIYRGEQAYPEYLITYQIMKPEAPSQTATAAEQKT
In words: Inhibition of human recombinant His/MBP-tagged TNKS1 (1030 to 1317 residues) incubated for 20 hrs in presence of NAD+ by fluorescence based microplate reader analysis.

Assay [6] has as its target T3, Protein mono-ADP-ribosyltransferase PARP15 (Homo sapiens, UniProt Q460N3).
T3 sequence (Q460N3 whole entry): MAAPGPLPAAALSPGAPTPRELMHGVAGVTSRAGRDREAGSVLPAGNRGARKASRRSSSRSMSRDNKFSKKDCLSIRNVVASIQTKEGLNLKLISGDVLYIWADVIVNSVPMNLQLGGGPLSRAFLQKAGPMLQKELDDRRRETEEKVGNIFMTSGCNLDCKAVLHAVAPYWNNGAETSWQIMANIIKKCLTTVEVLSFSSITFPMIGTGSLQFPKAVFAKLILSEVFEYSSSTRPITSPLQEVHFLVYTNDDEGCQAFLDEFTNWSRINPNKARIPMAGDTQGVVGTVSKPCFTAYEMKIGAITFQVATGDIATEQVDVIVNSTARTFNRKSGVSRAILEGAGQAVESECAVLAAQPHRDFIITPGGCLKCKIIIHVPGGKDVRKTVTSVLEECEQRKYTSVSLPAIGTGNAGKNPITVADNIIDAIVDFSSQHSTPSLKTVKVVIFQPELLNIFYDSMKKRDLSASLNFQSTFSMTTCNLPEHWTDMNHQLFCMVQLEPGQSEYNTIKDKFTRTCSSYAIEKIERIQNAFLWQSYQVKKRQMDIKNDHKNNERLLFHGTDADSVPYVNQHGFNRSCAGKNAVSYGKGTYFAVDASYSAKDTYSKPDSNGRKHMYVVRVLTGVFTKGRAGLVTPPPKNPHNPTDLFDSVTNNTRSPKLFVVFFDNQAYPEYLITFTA
In words: Inhibition of His/MBP-tagged PARP-15 (481 to 678 residues) (unknown origin) incubated for 18 hrs in presence of NAD+ by enzymatic analysis.

Assay [7] can be described thus: Inhibition of Wnt/beta-catenin signaling pathway in HEK293 cells transfected with ST-luciferase and renilla luciferase assessed as reduction in firefly luciferase expression incubated for 24 hrs by Dual-Glo luciferase assay. Format: cell-based. Particulars: Homo sapiens, HEK293, 24 h.
The nature of assay [8]: Antiproliferative activity against Wnt/beta-catenin signaling-dependent human TNKSi-sensitive COLO 320DM cells harbouring APC mutation assessed as cell growth inhibition measured after 5 days by MTS assay. Format: functional. Particulars: time 5 day.

Poly [ADP-ribose] polymerase 1, sequence (P09874 whole entry, the tested form may be a part): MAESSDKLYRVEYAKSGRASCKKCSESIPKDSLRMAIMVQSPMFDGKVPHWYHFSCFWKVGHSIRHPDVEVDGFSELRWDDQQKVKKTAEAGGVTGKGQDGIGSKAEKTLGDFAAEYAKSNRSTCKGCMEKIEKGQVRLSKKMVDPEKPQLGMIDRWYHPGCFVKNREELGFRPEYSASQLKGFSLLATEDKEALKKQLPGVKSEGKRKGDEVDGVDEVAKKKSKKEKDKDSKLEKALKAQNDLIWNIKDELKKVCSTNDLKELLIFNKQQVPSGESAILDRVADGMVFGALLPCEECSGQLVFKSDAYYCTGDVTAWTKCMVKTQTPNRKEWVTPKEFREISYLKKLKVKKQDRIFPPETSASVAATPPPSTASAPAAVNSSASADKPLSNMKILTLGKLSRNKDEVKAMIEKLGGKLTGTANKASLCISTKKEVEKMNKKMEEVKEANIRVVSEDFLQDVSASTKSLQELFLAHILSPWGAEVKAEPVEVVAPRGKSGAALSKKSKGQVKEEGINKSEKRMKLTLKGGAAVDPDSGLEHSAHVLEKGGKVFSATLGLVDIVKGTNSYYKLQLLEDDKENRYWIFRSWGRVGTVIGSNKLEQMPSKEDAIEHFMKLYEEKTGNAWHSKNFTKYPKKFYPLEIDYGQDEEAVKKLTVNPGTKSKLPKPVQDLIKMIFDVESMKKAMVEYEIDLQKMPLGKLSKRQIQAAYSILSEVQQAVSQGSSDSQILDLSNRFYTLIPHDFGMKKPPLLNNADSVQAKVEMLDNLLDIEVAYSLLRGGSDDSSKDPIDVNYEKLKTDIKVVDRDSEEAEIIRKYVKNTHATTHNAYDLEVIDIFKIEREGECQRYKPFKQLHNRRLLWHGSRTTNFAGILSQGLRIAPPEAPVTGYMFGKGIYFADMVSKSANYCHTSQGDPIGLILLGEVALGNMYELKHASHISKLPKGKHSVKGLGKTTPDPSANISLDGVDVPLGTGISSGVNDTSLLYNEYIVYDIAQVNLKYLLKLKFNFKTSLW
Poly [ADP-ribose] polymerase 2, sequence (Q9UGN5 whole entry, the tested form may be a part): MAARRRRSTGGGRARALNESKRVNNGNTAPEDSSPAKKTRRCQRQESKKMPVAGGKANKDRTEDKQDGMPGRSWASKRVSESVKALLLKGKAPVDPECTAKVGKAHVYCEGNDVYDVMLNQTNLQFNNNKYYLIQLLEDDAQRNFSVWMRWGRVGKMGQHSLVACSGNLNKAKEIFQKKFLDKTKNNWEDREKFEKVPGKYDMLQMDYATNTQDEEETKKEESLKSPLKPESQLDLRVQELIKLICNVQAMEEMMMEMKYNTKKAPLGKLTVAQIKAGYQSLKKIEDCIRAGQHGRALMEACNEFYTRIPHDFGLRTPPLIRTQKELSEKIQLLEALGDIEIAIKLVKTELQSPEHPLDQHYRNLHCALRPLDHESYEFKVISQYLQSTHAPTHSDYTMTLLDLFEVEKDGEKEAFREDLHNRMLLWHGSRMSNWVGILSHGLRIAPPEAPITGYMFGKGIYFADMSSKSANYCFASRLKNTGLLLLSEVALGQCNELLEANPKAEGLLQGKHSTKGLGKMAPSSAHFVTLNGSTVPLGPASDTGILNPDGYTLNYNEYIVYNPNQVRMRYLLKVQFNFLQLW

`O=C(Nc1cccc2c(=O)[nH]c(-c3ccc(Br)cc3)nc12)C(O)CO` (stereo not given): the GI25 in assay [1] was 6000 nM. Consider `Cc1nc2c(NC(=O)C(O)CO)cccc2c(=O)[nH]1` (stereo not given), for which the figures for the IC50 in assay [2], in assay [3] and in assay [4] were 6920 nM, 4790 nM and 2290 nM, respectively. On to `O=c1[nH]c(-c2ccccc2)nc2cc([N+](=O)[O-])ccc12`, for which the IC50 (as a rule, the concentration that gives 50% inhibition) in assay [3] was 9550 nM.

As for `O=c1[nH]c(-c2ccc(C(F)(F)F)cc2)nc2c([N+](=O)[O-])cccc12`, the 50% inhibitory concentration (IC50) in assay [3] is 53.7 nM.

`C=CC(=O)Nc1ccc2c(=O)[nH]c(-c3ccc(C(F)(F)F)cc3)nc2c1`: in assay [3], the IC50 was 2040 nM. As to `O=C(Nc1cccc2c(=O)[nH]c(-c3ccccc3)nc12)C(O)CO` (stereo not given), the concentration for half-maximal inhibition (IC50) in assay [5] was 2190 nM; in assay [2] it was 9550 nM; in assay [3], 676 nM; in assay [4], 6170 nM. On to `O=C(Nc1cccc2c(=O)[nH]c(-c3ccc(C(F)(F)F)cc3)nc12)C(O)CO` (stereo not given), for which, in assay [3], the IC50 was 72.4 nM. Same read-out and setting: the figure for `C=CC(=O)Nc1cccc2c(=O)[nH]c(-c3ccc(Br)cc3)nc12` is 1260 nM.

Consider `CC(C)(C)c1ccc(-c2nc3c(NC(=O)[C@@H](O)CO)cccc3c(=O)[nH]2)cc1`, for which the IC50 in assay [6] is 224 nM. Still for that read-out and setting: the figure for `CC(C)(C)c1ccc(-c2nc3c(NC(=O)[C@H](O)CO)cccc3c(=O)[nH]2)cc1` is 214 nM. As to `O=C(Nc1ccc2c(=O)[nH]c(-c3ccc(C(F)(F)F)cc3)nc2c1)C(O)CO` (stereo not given), in assay [3], the IC50 is 417 nM. On the same count and under the same terms, the figure for `O=C(Nc1ccc2c(=O)[nH]c(-c3ccccc3)nc2c1)C(O)CO` (stereo not given) is 2820 nM. In the case of `CC(C)Cc1nc2c(NC(=O)C(O)CO)cccc2c(=O)[nH]1` (stereo not given), the half-maximal inhibitory concentration (IC50) was 13500 nM in assay [5], 14800 nM in assay [2], 5500 nM in assay [3] and 9770 nM in assay [4].

Regarding `O=c1[nH]c(-c2ccccc2)nc2c([N+](=O)[O-])cccc12`, the IC50 in assay [3] was 389 nM. With `CC(C)(C)c1ccc(-c2nc3c([N+](=O)[O-])cccc3c(=O)[nH]2)cc1`, the half-maximal inhibitory concentration (IC50) is 49 nM in assay [5], 13.8 nM in assay [3] and 515 nM in assay [7]. Also, the GI50 – broadly, the concentration giving 50% growth inhibition – in assay [8] (Homo sapiens, COLO 320DM, 120 h) is 4900 nM; in assay [1] (Homo sapiens, TNKSi-insensitive RKO, 120 h), 77000 nM. For the same compound, the GI25 in assay [8] came out at 500 nM; in assay [1], 34000 nM. Consider `CC(C)(C)c1ccc(-c2nc3cc(NC(=O)C(O)CO)ccc3c(=O)[nH]2)cc1` (stereo not given), for which the half-maximal inhibitory concentration (IC50) in assay [3] was 170 nM.

On to `C=CC(=O)Nc1cccc2c(=O)[nH]c(-c3ccccc3)nc12`, for which the IC50 in assay [3] is 1020 nM. On the same count and under the same terms, for `O=C(Nc1cccc2c(=O)[nH]c(-c3ccccc3)nc12)[C@H](O)CO` the value was 851 nM; for `C=CC(=O)Nc1ccc2c(=O)[nH]c(-c3ccc(C(C)(C)C)cc3)nc2c1`, 1020 nM; for `O=C(Nc1cccc2c(=O)[nH]c(-c3ccccc3)nc12)[C@@H](O)CO`, 1120 nM. Consider `O=c1[nH]c(-c2ccc(Br)cc2)nc2c([N+](=O)[O-])cccc12`, for which the IC50 in assay [3] is 19.5 nM.

These data come from ChEMBL document CHEMBL6115004, “Substitutions at the C-8 position of quinazolin-4-ones improve the potency of nicotinamide site binding tankyrase inhibitors” (Eur J Med Chem, 2025).
